{
  "source": "paper PMC6687188",
  "about": "“Novel lactate dehydrogenase inhibitors with in vivo efficacy against Cryptosporidium parvum” (PLoS Pathogens, 2019)",
  "data": [
    {"target": "recombinant CpLDH protein (Cryptosporidium parvum, UniProt Q9GT92, F198L/K295E/R251K)", "units": {"MEAN CpLDH INHIBITION (%)": "%"}, "values": [
      {"smiles": "CC[C@](C)(O)C(=O)O[C@H]1C(=O)O[C@@H]2C[C@H]3C(C)=CC(=O)[C@@H](O)[C@]3(C)[C@H]3[C@@]4(O)OC[C@]32[C@@H]1[C@@H](C)[C@H]4O", "note": "[NSC132791]", "MEAN CpLDH INHIBITION (%)": -161.16},
      {"smiles": "CC1(C)N=C(N)N=C(N)N1c1ccc(OCCCOc2ccccc2)c(Cl)c1.CCS(=O)(=O)O", "note": "[NSC133071]", "MEAN CpLDH INHIBITION (%)": -57.79},
      {"smiles": "Br.COC1CN(C)C(=Nc2cccc3ccccc23)S1", "note": "(stereo not shown) [NSC135996]", "MEAN CpLDH INHIBITION (%)": -24.95},
      {"smiles": "CC1=CC23C(COC(=O)C24CO4)C(C(=O)O)=CC3C1C.NCc1ccccc1", "note": "(stereo not shown) [NSC136037]", "MEAN CpLDH INHIBITION (%)": -0.26},
      {"smiles": "CC[C@@]1(O)C[C@H](O[C@H]2C[C@H](N(C)C)[C@H](O)[C@H](C)O2)c2c(O)c3c(c(O)c2[C@H]1O[C@H]1C[C@H](N(C)C)[C@H](O)[C@H](C)O1)C(=O)c1cccc(O)c1C3=O", "note": "[NSC136044]", "MEAN CpLDH INHIBITION (%)": -159.43},
      {"smiles": "CCCC(=O)OCC1OC(n2ccc(N)nc2=O)C(OC(=O)CCC)C1OC(=O)CCC", "note": "(stereo not shown) [NSC138429]", "MEAN CpLDH INHIBITION (%)": -38.75},
      {"smiles": "CCS(=O)(=O)O.CN(C)C(=O)c1cccc(COc2ccc(N3C(N)=NC(N)=NC3(C)C)cc2Cl)c1", "note": "[NSC139105]", "MEAN CpLDH INHIBITION (%)": -28.54},
      {"smiles": "Cc1cccc(NC(=O)/C=C/c2ccc([N+](=O)[O-])cc2)c1", "note": "[NSC139109]", "MEAN CpLDH INHIBITION (%)": -11.32},
      {"smiles": "CN1c2c(nc(N)[nH]c2=O)NCC1CCNc1ccc(C(=O)N[C@@H](CCC(=O)[O-])C(=O)[O-])cc1.[Na+].[Na+]", "note": "(stereo partly shown) [NSC139490]", "MEAN CpLDH INHIBITION (%)": -2.06},
      {"smiles": "CC(C)=CCC(OC(=O)C=C(C)C)C1=CC(=O)c2c(O)ccc(O)c2C1=O", "note": "(stereo not shown) [NSC140377]", "MEAN CpLDH INHIBITION (%)": -8.72},
      {"smiles": "O=S(=O)(c1cccc(N=C=S)c1)c1cccc(N=C=S)c1", "note": "[NSC140911]", "MEAN CpLDH INHIBITION (%)": -0.44},
      {"smiles": "Cl.NC(=O)c1cn(C2OC(CO)C(O)C2O)c2ncnc(N)c12", "note": "(stereo not shown) [NSC143648]", "MEAN CpLDH INHIBITION (%)": -33.40},
      {"smiles": "C=C1C(=O)OCC2C(C(=O)O)=CC3C(C)C(C)=CC123", "note": "(stereo not shown) [NSC145150]", "MEAN CpLDH INHIBITION (%)": -64.31},
      {"smiles": "CC(C)(C)CC(C)(C)NCC(O)COc1ccc(C(C)(C)c2ccc(OCC(O)CNC(C)(C)CC(C)(C)C)cc2)cc1.Cl", "note": "(stereo not shown) [NSC145366]", "MEAN CpLDH INHIBITION (%)": -111.71},
      {"smiles": "O=C1NC(c2cccc3ccccc23)Nc2ccccc21", "note": "(stereo not shown) [NSC145669]", "MEAN CpLDH INHIBITION (%)": 0.07},
      {"smiles": "O=c1cnn(C2OC(CO)C(O)C2O)c(=S)[nH]1", "note": "(stereo not shown) [NSC146268]", "MEAN CpLDH INHIBITION (%)": -43.94},
      {"smiles": "COc1cc2c[n+](C)c3c4cc5c(cc4ccc3c2cc1OC)OCO5.[Cl-]", "note": "[NSC146397]", "MEAN CpLDH INHIBITION (%)": -1.75},
      {"smiles": "COc1ccc(C[C@@H]2NC[C@@H](O)[C@@H]2OC(C)=O)cc1.Cl", "note": "[NSC147340]", "MEAN CpLDH INHIBITION (%)": -13.68},
      {"smiles": "COC(=O)Nc1nc2ccc(Br)cc2[nH]1", "note": "[NSC154754]", "MEAN CpLDH INHIBITION (%)": -36.36},
      {"smiles": "COc1cc2cc3c4cc(OC)c(OC)cc4cc[n+]3c(C)c2cc1OC.O=C([O-])CS(=O)(=O)O", "note": "[NSC154890]", "MEAN CpLDH INHIBITION (%)": -11.41},
      {"smiles": "N#CC1CC(c2ccccc2)Nc2cc(Cl)ccc2N1", "note": "(stereo not shown) [NSC155595]", "MEAN CpLDH INHIBITION (%)": -11.00},
      {"smiles": "COC(=O)[C@@H]1[C@H](O)[C@H](C)[C@H](O)[C@H](C)/C=C\\C=C(/C)C(=O)Nc2c(C)c(OC(C)=O)c3c(c2O)C(=O)C(C)=C2OCOC(=C23)/C(C)=C/[C@@](C)(O)[C@H](O)[C@@H](C)[C@H]1OC(C)=O", "note": "[NSC156215]", "MEAN CpLDH INHIBITION (%)": -35.58},
      {"smiles": "CC(=O)OCc1cc(=O)n(C)c2c3c4c(cc12)c(C)cc(=O)n4CO3", "note": "[NSC157004]", "MEAN CpLDH INHIBITION (%)": -1.50},
      {"smiles": "CCN(CC)CCCC(C)Nc1ccnc(/C=C/c2ccc(Cl)cc2)c1", "note": "(stereo not shown) [NSC157389]", "MEAN CpLDH INHIBITION (%)": -3.33},
      {"smiles": "Cc1ccc([S+](c2ccc(C)cc2)c2ccc(C)cc2)cc1", "note": "[NSC157930]", "MEAN CpLDH INHIBITION (%)": -72.47},
      {"smiles": "CCOC(=O)/C=C/c1c(C)[nH]c(=O)[nH]c1=O", "note": "[NSC159935]", "MEAN CpLDH INHIBITION (%)": -51.31},
      {"smiles": "Cc1c2cnccc2c(C)c2c1c1ccccc1n2CCOC(=O)c1ccccc1", "note": "[NSC163443]", "MEAN CpLDH INHIBITION (%)": -14.23},
      {"smiles": "CC(=O)[O][Sn]([CH2]c1ccccc1)([CH2]c1ccccc1)[CH2]c1ccccc1", "note": "[NSC164909]", "MEAN CpLDH INHIBITION (%)": -58.07},
      {"smiles": "CCC[CH2][Sn]([CH2]CCC)([CH2]CCC)[O]c1cc(Cl)c(Cl)cc1Cl", "note": "[NSC164914]", "MEAN CpLDH INHIBITION (%)": -26.61},
      {"smiles": "COC(=O)[C@@]12OC[C@]34[C@H]([C@@H](O)[C@@H]1O)[C@@]1(C)CC(=O)C(O)=C(C)[C@@H]1C[C@H]3OC(=O)[C@H](OC(=O)/C=C(\\C)C(C)C)[C@@H]24", "note": "[NSC165563]", "MEAN CpLDH INHIBITION (%)": -22.46},
      {"smiles": "CCSC(=O)N1c2ccc(OC)cc2C=CC1C#N", "note": "(stereo not shown) [NSC165897]", "MEAN CpLDH INHIBITION (%)": -41.74},
      {"smiles": "CN1CCN(CCNc2ccc(CO)c3sc4ccccc4c(=O)c23)CC1", "note": "[NSC166381]", "MEAN CpLDH INHIBITION (%)": -6.81},
      {"smiles": "CSc1ccc(NC(=O)CCl)cc1", "note": "[NSC166464]", "MEAN CpLDH INHIBITION (%)": -7.16},
      {"smiles": "CCOC(=O)C(CC(C)C)NC(=O)C(Cc1ccc(N(CCCl)CCCl)cc1)NC(C)=O", "note": "(stereo not shown) [NSC167780]", "MEAN CpLDH INHIBITION (%)": -51.52},
      {"smiles": "CC(=O)OCCN1c2ccccc2Sc2cnccc21", "note": "[NSC168221]", "MEAN CpLDH INHIBITION (%)": -24.94},
      {"smiles": "Cc1cc2nc(C=C(C(F)(F)F)C(F)(F)F)oc2cc1C", "note": "[NSC168415]", "MEAN CpLDH INHIBITION (%)": -49.77},
      {"smiles": "CCC[CH2][Pb]([Cl])([CH2]CCC)[CH2]CCC", "note": "[NSC168597]", "MEAN CpLDH INHIBITION (%)": -54.94}
    ]}
  ]
}
